Experimental data from article PMC8452302 (CPT: Pharmacometrics & Systems Pharmacology, 2021).

Assays:
[1] = Physicochemical PBPK model inputs
Caco-2 permeability = format: in vitro ADME; details: human
BCRP [2] = molecular target: T1, BCRP (Homo sapiens, UniProt Q9UNQ0); assay: BCRP-mediated transport of substrate; format: in vitro ADME; details: Estimated; optimized to recover ~40% Fa
T1 sequence (Q9UNQ0 1-655): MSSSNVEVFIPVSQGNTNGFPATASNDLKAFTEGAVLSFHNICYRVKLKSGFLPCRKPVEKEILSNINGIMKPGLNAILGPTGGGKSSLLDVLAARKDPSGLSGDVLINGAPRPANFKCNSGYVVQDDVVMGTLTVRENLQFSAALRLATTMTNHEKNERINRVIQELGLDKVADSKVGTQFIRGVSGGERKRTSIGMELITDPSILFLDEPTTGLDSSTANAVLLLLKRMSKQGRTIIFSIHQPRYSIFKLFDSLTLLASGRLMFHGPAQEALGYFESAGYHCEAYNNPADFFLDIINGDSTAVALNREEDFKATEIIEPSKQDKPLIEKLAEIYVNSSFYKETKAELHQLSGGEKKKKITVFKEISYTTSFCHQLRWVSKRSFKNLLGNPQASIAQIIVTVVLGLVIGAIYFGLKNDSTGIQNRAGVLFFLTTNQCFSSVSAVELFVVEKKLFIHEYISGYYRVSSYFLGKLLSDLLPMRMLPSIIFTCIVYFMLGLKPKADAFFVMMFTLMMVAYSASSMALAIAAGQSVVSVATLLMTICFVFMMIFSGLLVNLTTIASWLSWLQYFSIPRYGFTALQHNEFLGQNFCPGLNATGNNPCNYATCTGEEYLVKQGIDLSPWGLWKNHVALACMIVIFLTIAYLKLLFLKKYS

OATP1B3 = molecular target: T2, OATP1B3 (Homo sapiens, UniProt Q9NPD5); assay: OATP1B3-mediated transport of substrate; format: in vitro ADME; details: OATP1B3-transfected HEK293 cells
T2 sequence (Q9NPD5 1-702): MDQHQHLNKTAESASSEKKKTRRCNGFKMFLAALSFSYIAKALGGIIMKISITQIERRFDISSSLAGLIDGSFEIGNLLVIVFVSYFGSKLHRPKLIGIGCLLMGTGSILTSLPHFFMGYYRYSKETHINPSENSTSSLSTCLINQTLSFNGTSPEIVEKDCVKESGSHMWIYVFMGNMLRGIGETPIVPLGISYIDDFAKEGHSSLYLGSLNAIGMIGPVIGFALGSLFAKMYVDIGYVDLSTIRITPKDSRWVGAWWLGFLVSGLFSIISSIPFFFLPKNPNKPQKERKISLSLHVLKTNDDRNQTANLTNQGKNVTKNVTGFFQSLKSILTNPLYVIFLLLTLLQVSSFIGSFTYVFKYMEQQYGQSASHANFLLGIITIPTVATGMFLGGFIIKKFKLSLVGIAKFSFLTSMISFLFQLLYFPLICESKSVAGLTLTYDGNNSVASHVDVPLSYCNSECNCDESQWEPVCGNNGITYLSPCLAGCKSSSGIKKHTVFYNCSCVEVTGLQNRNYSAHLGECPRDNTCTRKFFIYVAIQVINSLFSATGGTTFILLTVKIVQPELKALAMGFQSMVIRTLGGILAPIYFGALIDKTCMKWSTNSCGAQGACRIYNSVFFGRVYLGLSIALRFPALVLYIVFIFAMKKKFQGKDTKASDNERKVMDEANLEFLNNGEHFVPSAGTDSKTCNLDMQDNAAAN

OATP2B1 = molecular target: T3, OATP2B1 (Homo sapiens, UniProt O94956); assay: OATP2B1-mediated transport of substrate; format: in vitro ADME; details: Estimated; optimized to recover ~40% Fa
T3 sequence (O94956 1-709): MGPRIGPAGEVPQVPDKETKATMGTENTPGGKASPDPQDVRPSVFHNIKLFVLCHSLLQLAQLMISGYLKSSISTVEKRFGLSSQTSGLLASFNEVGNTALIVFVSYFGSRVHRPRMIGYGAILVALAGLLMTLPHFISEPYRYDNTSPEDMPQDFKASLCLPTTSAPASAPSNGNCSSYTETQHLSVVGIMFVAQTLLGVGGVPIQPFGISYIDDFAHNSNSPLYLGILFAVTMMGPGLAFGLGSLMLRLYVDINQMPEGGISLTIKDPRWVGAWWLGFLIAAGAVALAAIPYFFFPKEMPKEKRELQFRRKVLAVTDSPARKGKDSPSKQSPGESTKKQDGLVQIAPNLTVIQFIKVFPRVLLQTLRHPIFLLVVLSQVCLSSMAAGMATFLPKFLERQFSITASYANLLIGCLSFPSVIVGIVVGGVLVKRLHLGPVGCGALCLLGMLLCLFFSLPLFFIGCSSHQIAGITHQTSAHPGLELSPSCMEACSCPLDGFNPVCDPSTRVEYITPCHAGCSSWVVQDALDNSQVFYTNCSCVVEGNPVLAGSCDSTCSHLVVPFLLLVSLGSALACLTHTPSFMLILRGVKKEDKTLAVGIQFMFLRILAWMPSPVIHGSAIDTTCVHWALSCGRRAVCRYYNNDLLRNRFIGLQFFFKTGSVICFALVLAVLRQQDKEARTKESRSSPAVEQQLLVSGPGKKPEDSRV

[3] = Passive transport clearance; format: in vitro ADME, human; details: Measured using SCHH
[4] = system: OATP1B1, OATP1B3, and OATP2B1; assay: SLC-phenotyping of hepatic uptake; format: in vitro ADME, human; details: SLC-phenotyping methodology
[5] = cited from earlier work
BCRP [6] = molecular target: T1, BCRP; details: read-out: BCRP Km; membrane vesicle assay; cited from earlier work

Compound: CC(C)c1nc(N(C)S(C)(=O)=O)nc(-c2ccc(F)cc2)c1/C=C/[C@@H](O)C[C@@H](O)CC(=O)O [Rosuvastatin, rosuvastatin]
- pKa [1]: 4.33
- Papp (Caco-2 permeability): 1.2 ×10⁻⁶ cm/s
- Intestinal BCRP Jmax (BCRP [2]): 380 pmol/min
- Km (OATP1B3): 28.3 µM
- Intestinal OATP2B1 CLint,T (OATP2B1): 0.002 µL/min
- CLPD basal (hepatic and renal) [3]: 1.1 µl/min/10^6
- share of active hepatic uptake driven by OATP1B1, OATP1B3, and OATP2B1 [4]: ~ 95%
- contribution of OAT3-mediated active secretion to renal clearance [5]: greater than 90%
- glomerular filtration rate [5]: ~ 0.22 ml/min/kg
- renal clearance [5]: ~ 2.6 ml/min/kg
- oral bioavailability ([5]; human, in vivo, po): ~ 20%
- Km (BCRP [6]): 10.8 µM
